Measured values as given in PubChem BioAssay (NCI).
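Protocol summary: plate cells (96-well), add compound at 5 concentrations, incubate 48 h, interpolate endpoints linearly. Abbreviation: GI50, concentration required for 50% inhibition of growth. TGI denotes the concentration required for complete inhibition of growth.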

Assays:
Assay in all cases: NCI tumour cell line growth inhibition, 48 h
HCT-15 colon = system: HCT-15 colon
LOX IMVI melanoma = system: LOX IMVI melanoma
SK-OV-3 ovarian = system: SK-OV-3 ovarian
HOP-62 NSCLC = system: HOP-62 NSCLC
HT29 colon = system: HT29 colon
SNB-75 CNS = system: SNB-75 CNS
MCF7 breast = system: MCF7 breast
MDA-MB-231 breast = system: MDA-MB-231 breast
HS 578T breast = system: HS 578T breast
NCI-H23 lung = system: NCI-H23 lung
K-562 leukemia = system: K-562 leukemia
UACC-62 melanoma = system: UACC-62 melanoma
CAKI-1 renal = system: CAKI-1 renal
HCT-116 colon = system: HCT-116 colon
KM12 colon = system: KM12 colon
SW-620 colon = system: SW-620 colon
SK-MEL-2 melanoma = system: SK-MEL-2 melanoma
RPMI-8226 leukemia = system: RPMI-8226 leukemia
SF-268 CNS = system: SF-268 CNS
ACHN renal = system: ACHN renal
HCC-2998 colon = system: HCC-2998 colon
NCI-H522 lung = system: NCI-H522 lung
MDA-MB-435 = system: MDA-MB-435
786-0 renal = system: 786-0 renal
MALME-3M melanoma = system: MALME-3M melanoma
SF-539 CNS = system: SF-539 CNS
HOP-92 NSCLC = system: HOP-92 NSCLC
UO-31 renal = system: UO-31 renal
A549 NSCLC = system: A549 NSCLC
M14 melanoma = system: M14 melanoma
TK-10 renal = system: TK-10 renal
SR leukemia = system: SR leukemia
SNB-19 CNS = system: SNB-19 CNS
OVCAR-5 ovarian = system: OVCAR-5 ovarian
OVCAR-4 ovarian = system: OVCAR-4 ovarian
NCI/ADR-RES ovarian = system: NCI/ADR-RES ovarian
SK-MEL-28 melanoma = system: SK-MEL-28 melanoma
COLO 205 colon = system: COLO 205 colon
PC-3 prostate = system: PC-3 prostate
T-47D breast = system: T-47D breast
NCI-H226 lung = system: NCI-H226 lung
BT-549 breast = system: BT-549 breast
IGROV1 ovarian = system: IGROV1 ovarian
UACC-257 melanoma = system: UACC-257 melanoma
NCI-H460 lung = system: NCI-H460 lung
SF-295 CNS = system: SF-295 CNS
SN12C renal = system: SN12C renal
OVCAR-8 ovarian = system: OVCAR-8 ovarian
DU-145 prostate = system: DU-145 prostate
HL-60(TB) leukemia = system: HL-60(TB) leukemia
MOLT-4 leukemia = system: MOLT-4 leukemia
A498 renal = system: A498 renal
CCRF-CEM leukemia = system: CCRF-CEM leukemia
SK-MEL-5 melanoma = system: SK-MEL-5 melanoma
OVCAR-3 ovarian = system: OVCAR-3 ovarian

Work on O=C(NCCCN1CCC(N2CCCCC2)CC1)C1=Cc2cc(Br)ccc2OC1 yielded a GI50 (HCT-15 colon) of 3.47 µM, a TGI (HCT-15 colon) of 17.1 µM and a GI50 (LOX IMVI melanoma) of 2.59 µM. It also gave a TGI (LOX IMVI melanoma) of 5.73 µM, a GI50 (SK-OV-3 ovarian) of 16.2 µM and a TGI (SK-OV-3 ovarian) of 30.9 µM. It also gave a GI50 (HOP-62 NSCLC) of 13.8 µM, a TGI (HOP-62 NSCLC) of 27.2 µM and a GI50 (HT29 colon) of 3.21 µM. It also gave a TGI (HT29 colon) of 12.5 µM, a GI50 (SNB-75 CNS) of 10.9 µM and a TGI (SNB-75 CNS) of 23.3 µM. The GI50 (MCF7 breast) was 4.45 µM, the TGI (MCF7 breast) was 17.1 µM and the GI50 (MDA-MB-231 breast) was 3.62 µM. The TGI (MDA-MB-231 breast) was 13.8 µM, the GI50 (HS 578T breast) was 12.2 µM and the TGI (HS 578T breast) was 33.4 µM. It also gave a GI50 (NCI-H23 lung) of 16.9 µM, a TGI (NCI-H23 lung) of 36.2 µM and a GI50 (K-562 leukemia) of 1.98 µM. For the same compound, the TGI (K-562 leukemia) was 4.63 µM, the GI50 (UACC-62 melanoma) was 1.83 µM and the TGI (UACC-62 melanoma) was 3.49 µM. The GI50 (CAKI-1 renal) was 2.46 µM, the TGI (CAKI-1 renal) was 6.09 µM and the GI50 (HCT-116 colon) was 5.29 µM. For the same compound, the TGI (HCT-116 colon) was 21.8 µM, the GI50 (KM12 colon) was 13.7 µM and the TGI (KM12 colon) was 27.8 µM. It also gave a GI50 (SW-620 colon) of 5.16 µM, a TGI (SW-620 colon) of 19 µM and a GI50 (SK-MEL-2 melanoma) of 8.14 µM. It also gave a TGI (SK-MEL-2 melanoma) of 22.1 µM, a GI50 (RPMI-8226 leukemia) of 4.54 µM and a TGI (RPMI-8226 leukemia) of 22.4 µM. It also gave a GI50 (SF-268 CNS) of 3.51 µM, a TGI (SF-268 CNS) of 13 µM and a GI50 (ACHN renal) of 10.2 µM. The TGI (ACHN renal) was 27 µM, the GI50 (HCC-2998 colon) was 13.5 µM and the TGI (HCC-2998 colon) was 27.2 µM. It also gave a GI50 (NCI-H522 lung) of 2.32 µM, a TGI (NCI-H522 lung) of 6.12 µM and a GI50 (MDA-MB-435) of 1.69 µM. It also gave a TGI (MDA-MB-435) of 3.55 µM, a GI50 (786-0 renal) of 11.2 µM and a TGI (786-0 renal) of 25.8 µM. For the same compound, the GI50 (MALME-3M melanoma) was 2.11 µM, the TGI (MALME-3M melanoma) was 3.89 µM and the GI50 (SF-539 CNS) was 2.09 µM. The TGI (SF-539 CNS) was 5.04 µM, the GI50 (HOP-92 NSCLC) was 3.68 µM and the TGI (HOP-92 NSCLC) was 19.8 µM. The GI50 (UO-31 renal) was 6.71 µM, the TGI (UO-31 renal) was 20.4 µM and the GI50 (A549 NSCLC) was 5.66 µM. The TGI (A549 NSCLC) was 20.1 µM, the GI50 (M14 melanoma) was 2.22 µM and the TGI (M14 melanoma) was 4.71 µM. It also gave a GI50 (TK-10 renal) of 14.3 µM, a TGI (TK-10 renal) of 27.7 µM and a GI50 (SR leukemia) of 2.5 µM. For the same compound, the TGI (SR leukemia) was 6.15 µM, the GI50 (SNB-19 CNS) was 14.2 µM and the TGI (SNB-19 CNS) was 31.3 µM. It also gave a GI50 (OVCAR-5 ovarian) of 19.9 µM, a TGI (OVCAR-5 ovarian) of 70.2 µM and a GI50 (OVCAR-4 ovarian) of 10 µM. For the same compound, the TGI (OVCAR-4 ovarian) was 32 µM, the GI50 (NCI/ADR-RES ovarian) was 19.1 µM and the TGI (NCI/ADR-RES ovarian) was 52.2 µM. The GI50 (SK-MEL-28 melanoma) was 1.83 µM, the TGI (SK-MEL-28 melanoma) was 3.54 µM and the GI50 (COLO 205 colon) was 2.16 µM. For the same compound, the TGI (COLO 205 colon) was 4.29 µM, the GI50 (PC-3 prostate) was 11.7 µM and the TGI (PC-3 prostate) was 26.8 µM. For the same compound, the GI50 (T-47D breast) was 2.04 µM, the TGI (T-47D breast) was 4.98 µM and the GI50 (NCI-H226 lung) was 16.9 µM. For the same compound, the TGI (NCI-H226 lung) was 34.5 µM, the GI50 (BT-549 breast) was 13.9 µM and the TGI (BT-549 breast) was 33 µM. For the same compound, the GI50 (IGROV1 ovarian) was 15.9 µM, the TGI (IGROV1 ovarian) was 39.4 µM and the GI50 (UACC-257 melanoma) was 1.9 µM. The TGI (UACC-257 melanoma) was 3.89 µM, the GI50 (NCI-H460 lung) was 8.43 µM and the TGI (NCI-H460 lung) was 23.6 µM. For the same compound, the GI50 (SF-295 CNS) was 8.58 µM, the TGI (SF-295 CNS) was 24.8 µM and the GI50 (SN12C renal) was 10.4 µM. The TGI (SN12C renal) was 24.1 µM, the GI50 (OVCAR-8 ovarian) was 4.82 µM and the TGI (OVCAR-8 ovarian) was 26.9 µM. It also gave a GI50 (DU-145 prostate) of 15.5 µM, a TGI (DU-145 prostate) of 30.4 µM and a GI50 (HL-60(TB) leukemia) of 4.94 µM. It also gave a TGI (HL-60(TB) leukemia) of 19.3 µM, a GI50 (MOLT-4 leukemia) of 7.41 µM and a TGI (MOLT-4 leukemia) of 26.3 µM. For the same compound, the GI50 (A498 renal) was 3.88 µM, the TGI (A498 renal) was 18.7 µM and the GI50 (CCRF-CEM leukemia) was 4.24 µM. For the same compound, the TGI (CCRF-CEM leukemia) was 20.2 µM, the GI50 (SK-MEL-5 melanoma) was 1.89 µM and the TGI (SK-MEL-5 melanoma) was 3.61 µM. For the same compound, the GI50 (OVCAR-3 ovarian) was 12.3 µM and the TGI (OVCAR-3 ovarian) was 26.8 µM.
